In data set [1] the test system is U937 cells. As to the kind of experiment: U937 leukemia cell growth. The data set is classed as cell-based, human. The protocol: Cell Lines and Culture Conditions. HL-60, DLD1, and U937 cells were obtained from ATCC (Rockville, Md.). Meth A cells were from Dr. Wolfram Samlowski (University of Utah, Salt Lake City, Utah). The PPC-1 cell line was provided by Dr. Graeme Bolger (University of Alabama, Birmingham, Ala.). For the cell growth and apoptosis experiments, cells were cultured at a density of 150,000 cells/ml in RPMI-1640 with 10% fetal bovine serum at 37° C. in a 5% CO2 humidified atmosphere. Agents were added at the indicated concentrations 24 h after culture initiation. […]
Cell Growth, Differentiation and Apoptosis Assays. The number of viable cells was determined using the MTT assay according to the manufacturer's protocol (Promega, Madison, Wis.) or using a Coulter counter. […] The assay is useful in calorimetric quantitation of cell viability and proliferation. In contrast, cell differentiation was evaluated using Wright and Non-Specific Esterase (NSE) staining of cells collected on microscope slides by cytospin as previously described (Magrinat, G. et al. (1992) Blood 80: 1880-1884). […]
The antiproliferative effects in the human AML (Acute Myeloid Leukemia) cell lines, HL-60 (myeloid leukemia) and U937 (monoblastic leukemia) cells were treated with JS-K for a period of 3 days, upon which cell growth was evaluated using a Coulter counter (CITY, STATE). […]

For data set [2], the system named is HL-60 cells. As to the kind of experiment: Apoptosis in HL-60 cells by DNA laddering. The conditions noted are these: 1 μM, twenty-four hours post-addition. The data set is classed as cell-based, human. The protocol: Cell Growth, Differentiation and Apoptosis Assays. The number of viable cells was determined using the MTT assay according to the manufacturer's protocol (Promega, Madison, Wis.) or using a Coulter counter. Briefly, a MTT assay is an analytical technique that uses the dye dimethylthiazolyl-diphenyltetrazolium (MTT) which turns from yellow to brownish-purple as it is reduced in the mitochondria of living cells. The assay is useful in calorimetric quantitation of cell viability and proliferation. In contrast, cell differentiation was evaluated using Wright and Non-Specific Esterase (NSE) staining of cells collected on microscope slides by cytospin as previously described (Magrinat, G. et al. (1992) Blood 80: 1880-1884). Apoptosis was assayed by flow cytometry and by determining DNA fragmentation using agarose gel electrophoresis as previously described (Shami, P. J. et al. (1998) Leukemia 12: 1461-1466). For the flow cytometry assay, we used the propidium iodide staining method of Nicoletti et al. (Nicoletti, I. et al. (1991) J. Immunol. Methods 139: 271-279).
Twenty-four hours post-addition, apoptosis induction was assayed by DNA laddering.

For data set [3], the system named is HL-60 cells. As to the kind of experiment: NO generation (nitrate and nitrite) by HL-60 cells in serum-free PBS. The data set is classed as cell-based, human. The protocol:
Production of NO was then determined by measuring levels of nitrate and nitrite, byproducts of NO oxidation. Serum-free buffer was used to eliminate the confounding effects of nitrates in the serum or medium. When added to HL-60 cells suspended in serum-free phosphate buffered saline (PBS) buffer at a concentration of 10 μM, JS-K appeared to generate NO in a time-dependent fashion with peak levels at 24 hours. […] For this, JS-K was added to HL-60 cells suspended in serum-free PBS at a concentration of 20 μM and nitrate+nitrite levels in the supernatants were determined 24 hours post-addition.

The nature of data set [4]: Hydrolysis of JS-K. Format: physicochemical. The protocol:
For increased JS-K consumption rate at an initial concentration of 50 uM in 0.1 M phosphate (pH=7.4) at 37° C. as a function of increasing GSH concentration. The value of k1 obtained from the intercept appeared to be in statistical agreement with the rate constant for JS-K hydrolysis (1×10^−6 s^−1) measured separately in the absence of GSH. The small amount of the hydrolysis product (2,4-dinitrophenol) (data not shown) was apparently formed in the dimethyl sulfoxide stock solution, which in this case had been stored in the refrigerator with intermittent use during several weeks.

The subject of data set [5] is rabbit thoracic aorta. As to the kind of experiment: Rabbit aortic rings bioassay of NO activity (vasorelaxation). From the text:
Preparation of Rabbit Aortic Rings for Bioassay of NO Activity. The preparation of rabbit aortic rings was similar to that described previously (Jia L and Furchgott R F (1993) J Pharmnacol Exp Ther 267: 371-378.), and the animal protocol was approved by the Institutional Animal Care and Use Committee. Briefly, a male New Zealand rabbit was anesthetized by an intravenous injection of sodium pentobarbital into a marginal ear vein. The descending thoracic aorta was quickly removed. The aortic rings (2 mm in length) were prepared and mounted in 20 ml of Krebs' solution (bubbled with 95% O2/5% CO2, 37° C.) in organ chambers. […] Rings were allowed to equilibrate for at least 90 min before experiments were initiated. Basal tension was maintained at approximately 3 g. To allow studies on relaxation, each ring was precontracted submaximally by addition of 50-100 nM phenylephine to the bathing solution. When the contraction had reached a steady state, JS-K was added successively to the bathing solution until the maximal relaxation was obtained. Hb and ODQ were also added to the bathing solution to investigate the mechanisms of action of JS-K.
The ability of JS-K to function as a NO donor was examined in the rabbit thoracic aorta model. […]

Read-outs that look alike come from different tables or passages of the source.

With `CCOC(=O)N1CCN(/[N+]([O-])=N/Oc2ccc([N+](=O)[O-])cc2[N+](=O)[O-])CC1` [JS-K, O^2-(2,4-dinitrophenyl) 1-[(4-ethoxycarbonyl)piperazin-1-yl]diazen-1-ium-1,2-diolate], the IC50 (usually the midpoint of a concentration-inhibition curve) was determined as 300 nM in data set [1] (U937 (monocytic leukemia) cells, read-out: IC50, growth) and 330 nM in data set [1] (U937, 3 days, Coulter counter, read-out: IC50, cell growth). Also, the “apoptosis induction by DNA laddering” value in data set [2] was “potent inducer of apoptosis in leukemia cells”. Also, the “time of peak NO levels (nitrate and nitrite)” value in data set [3] (10 μM, HL-60 cells in serum-free PBS) was determined as 24 h. In addition, the “extent of NO release versus cell number” value in data set [3] (20 μM, nitrate+nitrite in supernatants 24 hours post-addition) is “positively correlated with the cell number”. For the same molecule, the “activation of JS-K and NO release by supernatants from HL-60 cells” value in data set [3] (cell supernatants only) was “did not induce activation of JS-K and NO release”. For the same molecule, the resistance to hydrolysis result in data set [4] (0.1 M phosphate pH 7.4, 37° C.) was “resistant to simple hydrolysis”. Besides, the “rate constant for JS-K hydrolysis” value in data set [4] (measured separately in the absence of GSH, pH 7.4, 37° C.) was 1e-06 s⁻¹. The hydrolysis entry in data set [4] (pH=12) is recorded as “much more facile”. Further, in data set [5] (Hb and ODQ added), the reversibility of vasoactivity entry is “reversible in the presence of a NO scavenger and a specific inhibitor of the NO-sGC-cGMP pathway”. In data set [5] (rings precontracted with phenylephine), the “concentration at which vasorelaxation reached a maximum” value is given as 100 nM.

For the origin of these results see patent US8404665B2, “In vivo use of glutathione S-transferase activated nitric oxide donors” (University of Utah Research Foundation, priority 2002, dated 2013).
